Data taken from patent publication US8629143B2, “Potassium channel modulators” (AbbVie Inc., priority 2009, dated 2014).
Blank lines part the entries; values can stand above or below the compound they belong to.

Target: T1, KCNQ 2/3 channels (HEK293 cells stably expressing human KCNQ2 and KCNQ3 subunits) (Homo sapiens, UniProt O43525+O43526)
T1 construct: expressed in transfected cells; host or cells: HEK293
Test: KCNQ2/3 channel activation, thallium flux FLIPR assay with BTC-AM dye
Format: cell-based
Details: for Emax: HEK293, maximum response relative to the response produced by 10 μM retigabine (set at 100%), read-out: Max. %; for EC50: HEK293 cells expressing human KCNQ2 and KCNQ3, thallium flux, FLIPR
Protocol: The following example describes the assay that can be used to identify compounds that activate KCNQ 2/3 channels.
HEK293 cells stably expressing human KCNQ2 and KCNQ3 subunits were seeded in 96-well, black-walled, clear-bottomed, poly-D-lysine coated plates (BD Biosciences, Bedford, Mass.) at a density of 1×10^5 cells per well 24 hours before the assay. On the assay day, BTC-AM dye (Invitrogen, Carlsbad, Calif.) was loaded into the cells by replacing the cell culture medium with 55 μL/well of 3 μg/mL dye in DPBS. Dye loading was allowed to proceed for 2 hours at room temperature and then cells were washed twice with 50 μL/well of assay buffer (in mM: 10 HEPES pH 7.3, 5 glucose, 140 Na-gluconate, 2.5 K-gluconate, 3.6 Ca-gluconate, 2 MgSO4, 0.1 Ouabain) to remove unloaded dye. Cells were incubated in 50 μL of assay buffer before loading onto a FLIPR system (Molecular Devices, Sunnyvale, Calif.). Various concentrations of compounds to be assayed were added to the cells in 50 μL of assay buffer and incubated for 4 minutes. The fluorescence signal was initiated by adding 100 μL of assay buffer containing 6 mM TlNO3 and 10 mM K2SO4. Fluors were excited using the 488-nm line of an argon laser and emission was filtered using a 540±30 nm bandpass filter. Fluorescent signals were recorded for 3 minutes. Sums of the responses over basal responses were plotted versus concentrations of test compounds to obtain an EC50 value. The maximum response for each test compound was determined relative to the response produced by 10 μM retigabine. The maximum response of retigabine at 10 μM was set at 100%.

SMILES: CC(C)c1nn(NC(=O)CC23CC4CC(CC(C4)C2)C3)c(=O)c2c1C1CCC2CC1 [Example 8, 2-(1-adamantyl)-N-(4-isopropyl-1-oxo-5,6,7,8-tetrahydro-5,8-ethanophthalazin-2(1H)-yl)acetamide]
Emax: 79%
EC50: 1000 to 10000 nM

SMILES: O=C(Cc1cc(F)cc(F)c1)Nn1nc(C(F)(F)F)c2ccccc2c1=O [Example 11, 2-(3,5-difluorophenyl)-N-[1-oxo-4-(trifluoromethyl)phthalazin-2(1H)-yl]acetamide]
Emax: 77%
EC50: 100 to 500 nM

SMILES: O=C(CC12CC3CC(CC(C3)C1)C2)Nn1nc(C(F)(F)F)c2ccccc2c1=O [Example 12, 2-(1-adamantyl)-N-[1-oxo-4-(trifluoromethyl)phthalazin-2(1H)-yl]acetamide]
Emax: 169%
EC50: 100 to 500 nM

SMILES: O=C(Cc1cc(F)cc(F)c1)Nn1nc(Cl)c2ccccc2c1=O [Example 19, N-(4-chloro-1-oxophthalazin-2(1H)-yl)-2-(3,5-difluorophenyl)acetamide]
Emax: 45%
EC50: 1000 to 10000 nM

SMILES: O=C(Cc1ccc(Cl)cc1)Nn1nc(Cl)c2ccccc2c1=O [Example 21, N-(4-chloro-1-oxophthalazin-2(1H)-yl)-2-(4-chlorophenyl)acetamide]
Emax: 82%
EC50: 1000 to 10000 nM

SMILES: O=C(Cc1cc(F)cc(F)c1)Nn1nc(C2CC2)c2ccccc2c1=O [Example 23, N-(4-cyclopropyl-1-oxophthalazin-2(1H)-yl)-2-(3,5-difluorophenyl)acetamide]
Emax: 156%
EC50: 500 to 1000 nM

SMILES: O=C(Cc1cccc(F)c1F)Nn1nc(-c2ccccc2)c2ccccc2c1=O [Example 25, 2-(2,3-difluorophenyl)-N-(1-oxo-4-phenylphthalazin-2(1H)-yl)acetamide]
Emax: 139%
EC50: 1000 to 10000 nM

SMILES: O=C(Cc1ccc(F)cc1)Nn1nc(-c2ccccc2)c2ccccc2c1=O [Example 26, 2-(4-fluorophenyl)-N-(1-oxo-4-phenylphthalazin-2(1H)-yl)acetamide]
Emax: 157%
EC50: 100 to 500 nM

SMILES: O=C(CC12CC3CC(CC(C3)C1)C2)Nn1nc(-c2ccccc2)c2ccsc2c1=O [Example 29, 2-(1-adamantyl)-N-(7-oxo-4-phenylthieno[2,3-d]pyridazin-6(7H)-yl)acetamide]
Emax: 173%
EC50: 100 to 500 nM

SMILES: CC1(C)[C@H]2CC[C@@H](CC(=O)Nn3nc(-c4ccccc4)c4ccsc4c3=O)[C@@H]1C2 [Example 30, 2-[(1S,2S,5S)-6,6-dimethylbicyclo[3.1.1]hept-2-yl]-N-(7-oxo-4-phenylthieno[2,3-d]pyridazin-6(7H)-yl)acetamide]
Emax: 94%
EC50: 1000 to 10000 nM

SMILES: O=C(Cc1ccc(F)cc1)Nn1nc(-c2ccccc2)c2ccsc2c1=O [Example 32, 2-(4-fluorophenyl)-N-(7-oxo-4-phenylthieno[2,3-d]pyridazin-6(7H)-yl)acetamide]
Emax: 46%
EC50: 1000 to 10000 nM

SMILES: O=C(Cc1cc(F)cc(F)c1)Nn1nc(-c2ccccc2)c2ccsc2c1=O [Example 33, 2-(3,5-difluorophenyl)-N-(7-oxo-4-phenylthieno[2,3-d]pyridazin-6(7H)-yl)acetamide]
Emax: 140%
EC50: 1000 to 10000 nM

Second part, the compound after the results:

Emax: 241%
EC50: 500 to 1000 nM
SMILES: O=C(CC12CC3CC(CC(C3)C1)C2)Nn1nc(-c2ccccc2)c2sccc2c1=O [Example 9, 2-(1-adamantyl)-N-(4-oxo-7-phenylthieno[2,3-d]pyridazin-5(4H)-yl)acetamide]

Emax: 179%
EC50: 1000 to 10000 nM
SMILES: O=C(Cc1cc(F)cc(F)c1)Nn1nc(-c2ccccc2)c2sccc2c1=O [Example 10, 2-(3,5-difluorophenyl)-N-(4-oxo-7-phenylthieno[2,3-d]pyridazin-5(4H)-yl)acetamide]

Emax: 47%
EC50: 100 to 500 nM
SMILES: O=C(Cc1ccc(Cl)cc1)Nn1nc(C(F)(F)F)c2ccccc2c1=O [Example 13, 2-(4-chlorophenyl)-N-[1-oxo-4-(trifluoromethyl)phthalazin-2(1H)-yl]acetamide]

Emax: 171%
EC50: 100 to 500 nM
SMILES: O=C(Cc1ccc(F)cc1)Nn1nc(-c2ccccc2)c2c(F)ccc(F)c2c1=O [Example 14, N-(5,8-difluoro-1-oxo-4-phenylphthalazin-2(1H)-yl)-2-(4-fluorophenyl)acetamide]

Emax: 140%
EC50: < 100 nM
SMILES: O=C(CC12CC3CC(CC(C3)C1)C2)Nn1nc(-c2ccccc2)c2c(F)ccc(F)c2c1=O [Example 15, 2-(1-adamantyl)-N-(5,8-difluoro-1-oxo-4-phenylphthalazin-2(1H)-yl)acetamide]

Emax: 175%
EC50: 100 to 500 nM
SMILES: O=C(Cc1ccc(Cl)cc1)Nn1nc(-c2ccccc2)c2c(F)ccc(F)c2c1=O [Example 16, 2-(4-chlorophenyl)-N-(5,8-difluoro-1-oxo-4-phenylphthalazin-2(1H)-yl)acetamide]

Emax: 189%
EC50: 100 to 500 nM
SMILES: O=C(Cc1cc(F)cc(F)c1)Nn1nc(-c2ccccc2)c2ccccc2c1=O [Example 18, 2-(3,5-difluorophenyl)-N-(1-oxo-4-phenylphthalazin-2(1H)-yl)acetamide]

Emax: 123%
EC50: 100 to 500 nM
SMILES: O=C(CC12CC3CC(CC(C3)C1)C2)Nn1nc(Cl)c2ccccc2c1=O [Example 20, 2-(1-adamantyl)-N-(4-chloro-1-oxophthalazin-2(1H)-yl)acetamide]

Emax: 63%
EC50: 1000 to 10000 nM
SMILES: O=C(Cc1ccc(Cl)cc1)Nn1nc(C2CC2)c2ccccc2c1=O [Example 22, 2-(4-chlorophenyl)-N-(4-cyclopropyl-1-oxophthalazin-2(1H)-yl)acetamide]

Emax: 235%
EC50: < 100 nM
SMILES: O=C(CC12CC3CC(CC(C3)C1)C2)Nn1nc(C2CC2)c2ccccc2c1=O [Example 24, 2-(1-adamantyl)-N-(4-cyclopropyl-1-oxophthalazin-2(1H)-yl)acetamide]

Emax: 92%
EC50: 500 to 1000 nM
SMILES: O=C(Cc1cc(F)ccc1F)Nn1nc(-c2ccccc2)c2ccccc2c1=O [Example 27, 2-(2,5-difluorophenyl)-N-(1-oxo-4-phenylphthalazin-2(1H)-yl)acetamide]

Emax: 121%
EC50: 1000 to 10000 nM
SMILES: Cc1nn(NC(=O)Cc2ccc(Cl)cc2)c(=O)c2ccccc12 [Example 28, 2-(4-chlorophenyl)-N-(4-methyl-1-oxophthalazin-2(1H)-yl)acetamide]

Emax: 30%
EC50: 1000 to 10000 nM
SMILES: O=C(Cc1ccc(Cl)cc1)Nn1nc(-c2ccccc2)c2ccsc2c1=O [Example 31, 2-(4-chlorophenyl)-N-(7-oxo-4-phenylthieno[2,3-d]pyridazin-6(7H)-yl)acetamide]

Emax: 184%
EC50: 100 to 500 nM
SMILES: CC(C)c1nn(NC(=O)CC23CC4CC(C)(CC(C)(C4)C2)C3)c(=O)c2ccccc12 [Example 34, 2-[3,5-dimethyl-1-adamantyl]-N-(4-isopropyl-1-oxophthalazin-2(1H)-yl)acetamide]

Emax: 192%
EC50: 100 to 500 nM
SMILES: O=C(Cc1cc(F)cc(F)c1)Nn1nc(-c2ccccc2)c2cc(F)ccc2c1=O [Example 35, 2-(3,5-difluorophenyl)-N-(6-fluoro-1-oxo-4-phenylphthalazin-2(1H)-yl)acetamide]

Emax: 155%
EC50: 100 to 500 nM
SMILES: O=C(Cc1ccc(Cl)cc1)Nn1nc(-c2ccccc2)c2cc(F)ccc2c1=O [Example 36, 2-(4-chlorophenyl)-N-(6-fluoro-1-oxo-4-phenylphthalazin-2(1H)-yl)acetamide]
